Measurements as given in patent US20020165233A1, “Quinoxaline containing medicaments for post exposure prophylaxis of an HIV infection” (priority 1999, published 2002).
“Also recorded” adds a separate entry of the source.

Columns and labels:
RT-SHIV [1] = experiment: Quantitative virus isolation (QVI) from PBMC co-cultured with C8166 and viral RNA PCR of culture supernatant; type: in vivo, rhesus monkeys; parameters: key to viral RNA PCR of QVI culture supernatant: +=positive; −=negative; conditions: animal #11, 15 mg/kg s.c. b.i.d. 24h thru 28 d post exp.
Experimental: (§1) Nine rhesus monkeys (male, 2 years old, 2-3 kg) were seronegative for SIV, Simian T cell Leukemia Virus (STLV), B virus and Type D retroviruses. 15 mg/kg body weight of COMPOUND A was subcutaneously administered into animals twice a day (12 h interval) for 28 d. Animals were divided into three groups. All animals were intravenously administered with 100 TCID50 of RT-SHIV The first group consisted of three animals treated with COMPOUND A from 8 h post exposure for 28 d. The second group of animals was treated with COMPOUND A from 24 h post exposure for 28 d. The third group (control) received the solvent that was used to dissolve COMPOUND A (PEG400:glycerol:water=[…]) from 8 h post exposure for 28 d.
(§2) Blood was collected from all the animals either just before or 2 h after the drug administration on 0, 3, 7, 10, 14, 21, 29 d post exposure in order to check the drug concentration, otherwise in intervals of 2 to 8 weeks. Biopsy of inguinal lymph nodes was conducted on 17 d or 18 d and 8 weeks post exposure in two animals per group. Cerebrospinal fluid (CSF) was collected from the animals just before biopsy.
Viral RNA was detected from 7 or 10 d post exposure up to 40 weeks post exposure in all plasma specimen from two animals (FIG. 2). […] While in two animals plasma viral RNA levels persisted around 10^5 copy/ml after a moderate reduction occurred at 4 weeks post exposure, viral RNA levels in one animal declined to about 10^3 copy/ml after 15 weeks post exposure (FIG. 2). The RT-SHIV infection in PIBMC was monitored by quantitative virus isolation (QVI) and quantitative PCR assay of proviral DNA. Serially diluted PBMC were co-cultured with C8166 to determine the minimal PBMC cell number to provoke a productive infection of C8166 cells. The number from the QVI test indicates infectious cells per one million PBMC. QVI results were consistent with plasma viral RNA levels. The numbers indicates the results of QVI. A + or − on the right indicates results of viral RNA PCR assay for the detection of virus in culture supernatant. +=positive, −=negative.

RT-SHIV [2] = experiment: RT-SHIV proviral DNA in PBMC and LNMC (quantitative PCR); type: in vivo, rhesus monkeys; conditions: for RT-SHIV proviral DNA in LNMC: 8 w p.e.
Experimental: as §1, §2
T-SHIV DNA Amount in Peripheral Blood Mononuclear Cells (PBMC) and Lymph Node Cells (LNC):
PBMC were separated by Ficoll-Hypaque gradient centrifugation. Cellular DNA was purified from 1×10^6 cells with a commercial DNA purification kit (Qiagen). Gag sequence of viral DNA was PCR amplified with the primers SG05i and SG06i. Nested PCR amplification with two sets of primers, i.e. F34C (nt. 9065 to 9082)(5′-CCTACCTACAATATGGGT-3′) and F35C (nt. 9800 to 9778)(5′-[…]-3′), the second primers: N3 (nt. 9182 to 9201)(5′-GMGATGGATACTCGCAATC-3′) and N4, (nt. 9552 to 9533)(5′-TMTCCTGCCAATCTGGTAT-3′) was performed to detect one copy per 100,000 cells. Detection and quantitative determination of the viral DNA copy number was conducted as described for plasma viral load. The cell numbers of PBMC and LNC were estimated by imaging analysis of cyber green-stained chromosomal DNA separated by agarose gel electrophoresis.
The detection limit was 1 copy DNA per 100,000 cells. In contrast to the untreated animals, the proviral DNA levels were very low in the treated groups.

[3] = parameters: species or system rhesus monkeys; conditions: rhesus monkey, in vivo, sc, 15 mg/kg
Experimental: as §1

In the case of CC[C@H]1C(=O)Nc2ccc(F)cc2N1C(=O)OC(C)C [Compound A, (3S)-ethyl-6-fluoro-4-isopropyloxycarbonyl-3,4-dihydroquinoxalin-2(1H)-one], the “viral RNA PCR of QVI culture supernatant” value (RT-SHIV [1]; week 8 post exp.) is reported as “+”, the “Quantitative virus isolation (QVI)” value (RT-SHIV [1]; week 11 post exp.) is reported as 4 infectious cells per one million PBMC and the “viral RNA PCR of QVI culture supernatant” value (RT-SHIV [1]; week 11 post exp.) is reported as “+”. For the same compound, the “viral RNA PCR of QVI culture supernatant” value (RT-SHIV [1]; week 15 post exp.) was “−/−”, the “RT-SHIV proviral DNA in PBMC” value (RT-SHIV [2]; animal #1, treated 8h thru 28 dpi, 2 w p.e.) was 0 viral DNA copies/100,000 cells and the “RT-SHIV proviral DNA in PBMC” value (RT-SHIV [2]; animal #1, treated 8h thru 28 dpi, 4 w p.e.) was 0 viral DNA copies/100,000 cells. The “RT-SHIV proviral DNA in PBMC” value (RT-SHIV [2]; animal #1, treated 8h thru 28 dpi, 15 w p.e.) was 1 viral DNA copies/100,000 cells, the “RT-SHIV proviral DNA in PBMC” value (RT-SHIV [2]; animal #1, treated 8h thru 28 dpi, 40 w p.e.) was 0 viral DNA copies/100,000 cells and the “RT-SHIV proviral DNA in PBMC” value (RT-SHIV [2]; animal #1, treated 8h thru 28 dpi, 50 w p.e.) was 0 viral DNA copies/100,000 cells. For the same compound, the “RT-SHIV proviral DNA in PBMC” value (RT-SHIV [2]; animal #3, treated 24 h thru 28 d pi, 2 w p.e.) was 0 viral DNA copies/100,000 cells, the “RT-SHIV proviral DNA in PBMC” value (RT-SHIV [2]; animal #3, treated 24 h thru 28 d pi, 4 w p.e.) was 0 viral DNA copies/100,000 cells and the “RT-SHIV proviral DNA in PBMC” value (RT-SHIV [2]; animal #3, treated 24 h thru 28 d pi, 15 w p.e.) was 16 viral DNA copies/100,000 cells. For the same compound, the “RT-SHIV proviral DNA in PBMC” value (RT-SHIV [2]; animal #3, treated 24 h thru 28 d pi, 40 w p.e.) was 0 viral DNA copies/100,000 cells, the “RT-SHIV proviral DNA in PBMC” value (RT-SHIV [2]; animal #3, treated 24 h thru 28 d pi, 50 w p.e.) was 2 viral DNA copies/100,000 cells and the “RT-SHIV proviral DNA in PBMC” value (RT-SHIV [2]; animal #4, treated 24 h thru 28 d pi, 2 w p.e.) was 0 viral DNA copies/100,000 cells. For the same compound, the “RT-SHIV proviral DNA in PBMC” value (RT-SHIV [2]; animal #4, treated 24 h thru 28 d pi, 4 w p.e.) was 0 viral DNA copies/100,000 cells, the “RT-SHIV proviral DNA in LNMC” value (RT-SHIV [2]; animal #4, treated 24 h thru 28 d pi) was 1 viral DNA copies/100,000 cells and the “RT-SHIV proviral DNA in PBMC” value (RT-SHIV [2]; animal #4, treated 24 h thru 28 d pi, 15 w p.e.) was 0 viral DNA copies/100,000 cells. For the same compound, the “RT-SHIV proviral DNA in PBMC” value (RT-SHIV [2]; animal #4, treated 24 h thru 28 d pi, 40 w p.e.) was 0 viral DNA copies/100,000 cells, the “RT-SHIV proviral DNA in PBMC” value (RT-SHIV [2]; animal #4, treated 24 h thru 28 d pi, 50 w p.e.) was 0 viral DNA copies/100,000 cells and the “RT-SHIV proviral DNA in PBMC” value (RT-SHIV [2]; animal #5, treated 8h thru 28 dpi, 2 w p.e.) was 0 viral DNA copies/100,000 cells. The “RT-SHIV proviral DNA in PBMC” value (RT-SHIV [2]; animal #5, treated 8h thru 28 dpi, 4 w p.e.) was 0 viral DNA copies/100,000 cells, the “RT-SHIV proviral DNA in LNMC” value (RT-SHIV [2]; animal #5, treated 8h thru 28 dpi) was 2 viral DNA copies/100,000 cells and the “RT-SHIV proviral DNA in PBMC” value (RT-SHIV [2]; animal #5, treated 8h thru 28 dpi, 15 w p.e.) was 0 viral DNA copies/100,000 cells. For the same compound, the “RT-SHIV proviral DNA in PBMC” value (RT-SHIV [2]; animal #5, treated 8h thru 28 dpi, 40 w p.e.) was 0 viral DNA copies/100,000 cells, the “RT-SHIV proviral DNA in PBMC” value (RT-SHIV [2]; animal #5, treated 8h thru 28 dpi, 50 w p.e.) was 0 viral DNA copies/100,000 cells and the “RT-SHIV proviral DNA in PBMC” value (RT-SHIV [2]; animal #10, treated 8h thru 28 dpi, 2 w p.e.) was 0 viral DNA copies/100,000 cells. The “RT-SHIV proviral DNA in PBMC” value (RT-SHIV [2]; animal #10, treated 8h thru 28 dpi, 4 w p.e.) was 0 viral DNA copies/100,000 cells, the “RT-SHIV proviral DNA in PBMC” value (RT-SHIV [2]; animal #10, treated 8h thru 28 dpi, 15 w p.e.) was 7 viral DNA copies/100,000 cells and the “RT-SHIV proviral DNA in PBMC” value (RT-SHIV [2]; animal #10, treated 8h thru 28 dpi, 40 w p.e.) was 1 viral DNA copies/100,000 cells. For the same compound, the “RT-SHIV proviral DNA in PBMC” value (RT-SHIV [2]; animal #10, treated 8h thru 28 dpi, 50 w p.e.) was 5 viral DNA copies/100,000 cells, the “RT-SHIV proviral DNA in PBMC” value (RT-SHIV [2]; animal #11, treated 24 h thru 28 d pi, 2 w p.e.) was 0 viral DNA copies/100,000 cells and the “RT-SHIV proviral DNA in PBMC” value (RT-SHIV [2]; animal #11, treated 24 h thru 28 d pi, 4 w p.e.) was 0 viral DNA copies/100,000 cells. The “RT-SHIV proviral DNA in PBMC” value (RT-SHIV [2]; animal #11, treated 24 h thru 28 d pi, 15 w p.e.) was 1 viral DNA copies/100,000 cells, the “RT-SHIV proviral DNA in PBMC” value (RT-SHIV [2]; animal #11, treated 24 h thru 28 d pi, 40 w p.e.) was 0 viral DNA copies/100,000 cells and the “RT-SHIV proviral DNA in PBMC” value (RT-SHIV [2]; animal #11, treated 24 h thru 28 d pi, 50 w p.e.) was 0 viral DNA copies/100,000 cells. The “proviral DNA levels (persistent infection) in treated groups relative to untreated” value (RT-SHIV [2]; treated groups versus untreated animals) was “very low; also recorded: far lower level of persistent infection” and the adverse effect [3] was “without any adverse effect”.
